We go through 13 molecules from patent publication US12662676B2, “Aptamer nucleic acid molecule, and complex and application thereof” (EAST CHINA UNIVERSITY OF SCIENCE AND TECHNOLOGY, priority 2019, dated 2026).

Data set [1] can be described thus: Fluorescence activation of III-3 fluorophore by Pepper aptamers and mutants. It is filed as biochemical. The note with it: for Activation folds: Activation of III-3 by Pepper mutants with single mutation, 1 μM III-3 with 5 μM RNA; for fluorescence activation of III-3 by base-modified Pepper: deoxyribonucleotide or 2′-F modification in stem-loop region. The procedure:
Preparation of Pepper or Pepper mutant aptamer according to the commonly used experimental method (1). 5 μM aptamer and 1 μM fluorophore were incubated in the detection buffer (40 mM HEPES, pH 7.4, 125 mM KCl, 5 mM MgCl2, 5% DMSO). The maximal excitation and emission peaks of the aptamer-fluorophore complexes were determined using a Synergy Neo2 multifunctional microplate reader. The fluorescence intensities of the aptamer-fluorophore complexes at the maximal excitation and emission peaks were determined using a Synergy Neo2 multifunctional microplate reader. The control sample (1 μM fluorophore without aptamer) was also measured under the same conditions. Then the ratios of fluorescence intensity were calculated. For example, the fluorescence maximal excitation and emission peaks of the complex of 5 μM F30-Pepper-2 and 1 μM III-3 fluorophore are 485 nm and 530 nm, respectively. The fluorescence intensity of the complex at 485±10 nm excitation and 530 nm±10 nm emission was 36,000, the fluorescence intensity of the control sample (1 μM III-3 fluorophore only) under the same detection conditions was 10. Thus, the activation ratio of F30-Pepper-2 aptamer on III-3 fluorophore was 3,600-fold.
In order to detect the fluorescence activation of III-3 fluorophore by different Pepper mutant, the Pepper-1 sequence in F30-Pepper-1 was mutated according to Table 1. […] 1 μM III-3 was incubated with […] RNA and their fluorescence activation folds were determined according to the commonly used experimental method (5). […] In summary, many Pepper mutants containing single and multiple mutants still retain the ability to activate the fluorescence of III-3 fluorophore.
In order to detect the activation of III-3 by modified Pepper, base-modified Pepper-3 was synthesized (SEQ ID NO: 6, the underlined nucleotides in […] GGCC contain deoxyribonucleotide bases) and Pepper-4 (SEQ ID NO: 7, the underlined nucleotides in […] GGGCC contain 2′-F modification) (synthesized by Shanghai GenePharma Co., Ltd), which contain deoxyribonucleotides replacement (shaded bases in FIG. 5A) or 2′-F modification (shaded bases in FIG. 5B) in the stem-loop region of Pepper. Detection of the fluorescence activation of III-3 fluorophore by these modified Peppers was carried out according to the commonly used experimental method (5).

A short description of data set [2]: Thermostability of Pepper (fluorescence after 5 minutes at different temperatures). It is filed as physicochemical. The note with it: 1 μM aptamer with 10 μM fluorophore (III-3 for F30-Pepper-1, DFHBI-1T for F30-Broccoli), 5 minutes at each temperature. The method, then: In order to test the thermostability of Pepper, 10 μM III-3 was incubated with 1 μM F30-Pepper-1, and then was placed at different temperatures for 5 minutes before the fluorescence was determined. 10 μM DFHBI-1T was incubated with 1 μM F30-Broccoli to be as the control.

Data set [3] in a line: RNA extraction and purification with Mal-III-3 beads, in-gel fluorescence. The note with it: gel incubated with 5 μM III-3 for 30 min. The procedure: In order to use Pepper for RNA extraction and purification, the pCDNA3.1 hygro(+)-TagBFP-4Pepper-7 and pCDNA3.1 hygro(+)-mCherry-4Pepper-7 plasmids in Example 12 were transfected into COS-7 cells, respectively. 24 hours after transfection, the cells were collected and the total RNA of the cells was extracted using the Easyp Super Total RNA Extraction Kit (Promega). The extracted total RNA was dissolved in buffer containing 40 mM HEPES, pH 7.4, 125 mM KCl, 5 mM MgCl2. The RNA was incubated at 70° C. for 10 min and placed at room temperature for more than 30 min.
500 μL activated Thiol Sepharose 4B (GE Healthcare) was washed twice with 500 μL PBS, and then was incubated with PBS containing 10 mM TCEP (Sigma) for 1 h at room temperature. After washing twice with 500 μL PBS, maleamide conjugated III-3 fluorophore (Mal-III-3) was added to react for 30 min at room temperature, and was washed three times with 500 μL PBS. The treated total RNA was incubated with the treated beads at room temperature. After 30 minutes, the mixture was centrifuged at 4000 rpm for 2 minutes, and the supernatant was discarded. […]
The recovered RNA was validated by electrophoresis. The gel was incubated with buffer containing 5 μM III-3 in 40 mM HEPES, pH 7.4, 125 mM KCl, and 5 mM MgCl2 for 30 min, and the fluorescence of 4Pepper-III-3 in the gel was detected.

For the molecule “G11U: F30-Pepper-1 mutant aptamer (NCCAAUCGUGUCGUGUCGNNNACUGGCGCCGN; RNA, backbone, methylation of C and the base at N not given here; Pepper aptamer mutant embedded in F30 scaffold) [Compound G11U]”, the Activation folds in data set [1] is on record as 1512 folds.
Turning to “G13C: F30-Pepper-1 mutant aptamer (NCCAAUCGUGGCCUGUCGNNNACUGGCGCCGN; RNA, backbone, methylation of C and the base at N not given here; Pepper aptamer mutant embedded in F30 scaffold) [Compound G13C]”, the Activation folds in data set [1] came out at 1758 folds.
Regarding “G18C: F30-Pepper-1 mutant aptamer (NCCAAUCGUGGCGUGUCCNNNACUGGCGCCGN; RNA, backbone, methylation of C and the base at N not given here; Pepper aptamer mutant embedded in F30 scaffold) [Compound G18C]”, the Activation folds in data set [1] was 1028 folds.
Take “G18U: F30-Pepper-1 mutant aptamer (NCCAAUCGUGGCGUGUCUNNNACUGGCGCCGN; RNA, backbone, methylation of C and the base at N not given here; Pepper aptamer mutant embedded in F30 scaffold) [Compound G18U]”: in data set [1], the Activation folds worked out at 1024 folds.
Turning to “G28U: F30-Pepper-1 mutant aptamer (NCCAAUCGUGGCGUGUCGNNNACUGGCUCCGN; RNA, backbone and the base at N not given here; Pepper variant inserted in F30 scaffold RNA) [Compound G28U]”, the Activation folds in data set [1] is recorded as 873 folds.
On to “Pepper-3: base-modified Pepper, SEQ ID NO: 6, deoxyribonucleotides replacement in the stem-loop region (GGCCCCCAAUCGUGGCGUGUCGGCCUGCUUCGGCAGGCACUGGCGCCGGGGCC; deoxyribonucleotides at some stem-loop positions, underlined positions not recoverable, further chemistry not given here)”, for which, in data set [1], the “fluorescence activation of III-3 by base-modified Pepper” value is recorded as “significantly activate the fluorescence of III-3 fluorophore”.
For “Pepper-4: base-modified Pepper, SEQ ID NO: 7, 2′-F modification in the stem-loop region (GGCCCCCCAAUCGUGGCGUGUCGGCCUGCUUCGGCAGGCACUGGCGCCGGGGGCC; 2'-fluoro at some stem-loop positions, underlined positions not recoverable, further chemistry not given here)”, the “fluorescence activation of III-3 by base-modified Pepper” value in data set [1] is “significantly activate the fluorescence of III-3 fluorophore”.
“U6A: F30-Pepper-1 mutant aptamer (NCCAAACGUGGCGUGUCGNNNACUGGCGCCGN; RNA, backbone and the base at N not given here; Pepper variant inserted in F30 scaffold RNA) [Compound U6A]”: the Activation folds in data set [1] came out at 1872 folds.
As for “U6C: F30-Pepper-1 mutant aptamer (NCCAACCGUGGCGUGUCGNNNACUGGCGCCGN; RNA, backbone and the base at N not given here; Pepper variant inserted in F30 scaffold RNA) [Compound U6C]”, the Activation folds in data set [1] was determined as 2088 folds.
Still for that read-out and setting: next, “U9A: F30-Pepper-1 mutant aptamer (NCCAAUCGAGGCGUGUCGNNNACUGGCGCCGN; RNA, backbone and the base at N not given here; Pepper variant inserted in F30 scaffold RNA) [Compound U9A]”: 2124 folds; “U14A: F30-Pepper-1 mutant aptamer (NCCAAUCGUGGCGAGUCGNNNACUGGCGCCGN; RNA, backbone and the base at N not given here; Pepper variant inserted in F30 scaffold RNA) [Compound U14A]”: 1524 folds.

B1: F30-Broccoli: reported monomeric Broccoli aptamer in F30 scaffold, SEQ ID NO: 4, control (nucleic acid)
chain: UUGCCAUGUGUAUGUGGGUUCGCCCACAUACUCUGAUGAUCCAGACGGUCGGGUCCAGAUAUUCGUAUCUGUCGAGUAGAGUGUGGGCUGGAUCAUUCAUGGCAA
modifications: listed as RNA, further chemistry not given here
With B1, in data set [2], the Tm came to 48 °C.

B2: TagBFP-4Pepper: TagBFP mRNA fused with 4Pepper-7, SEQ ID No: 27 (nucleic acid)
chain: AUGAGCGAGCUGAUUAAGGAGAACAUGCACAUGAAGCUGUACAUGGAGGGCACCGUGGACAACCAUCACUUCAAGUGCACAUCCGAGGGCGAAGGCAAGCCCUACGAGGGCACCCAGACCAUGAGAAUCAAGGUGGUCGAGGGCGGCCCUCUCCCCUUCGCCUUCGACAUCCUGGCUACUAGCUUCCUCUACGGCAGCAAGACCUUCAUCAACCACACCCAGGGCAUCCCCGACUUCUUCAAGCAGUCCUUCCCUGAGGGCUUCACAUGGGAGAGAGUCACCACAUACGAAGACGGGGGCGUGCUGACCGCUACCCAGGACACCAGCCUCCAGGACGGCUGCCUCAUCUACAACGUCAAGAUCAGAGGGGUGAACUUCACAUCCAACGGCCCUGUGAUGCAGAAGAAAACACUCGGCUGGGAGGCCUUCACCGAGACGCUGUACCCCGCUGACGGCGGCCUGGAAGGCAGAAACGACAUGGCCCUGAAGCUCGUGGGCGGGAGCCAUCUGAUCGCAAACAUCAAGACCACAUAUAGAUCCAAGAAACCCGCUAAGAACCUCAAGAUGCCUGGCGUCUACUAUGUGGACUACAGACUGGAAAGAAUCAAGGAGGCCAACAACGAGACCUACGUCGAGCAGCACGAGGUGGCAGUGGCCAGAUACUGCGACCUCCCUAGCAAACUGGGGCACAAGCUCAAUUAACACUCGCUAGAGCAUGGUUGGUACCGUAGUCAAGCUUCCCACGGAGGAUCCCCAAUCGUGGCGUGUCGGCCUCUCCCAAUCGUGGCGUGUCGGCCUCUCCCAAUCGUGGCGUGUCGGCCUCUCCCAAUCGUGGCGUGUCGGCCUCUCUUCGGAGAGGCACUGGCGCCGGAGAGGCACUGGCGCCGGAGAGGCACUGGCGCCGGAGAGGCACUGGCGCCGGGAUCCUCCGUGGG
Consider B2, for which the “in-gel fluorescence of recovered RNA” value in data set [3] is recorded as “bright Pepper-III-3 fluorescence signals”.
